Data as given in patent US11331294B2, “Benzoquinone derivative E3330 in combination with chemotherapeutic agents for the treatment of bladder cancer” (Indiana University Research and Technology Corporation, priority 2007, dated 2022).

What was measured:
T24 cells = experiment: Methylene blue cell growth assay T24; format: cell-based; conditions: Homo sapiens, T-24, read-out: cell growth-inhibitory IC50
Protocol: FIGS. 31A & 31B. Treatment with APE1/Ref-1 inhibitors potently blocks bladder cancer cell proliferation and activated Caspase 3/7. […] The IC50 values for FIG. 31A were determined using the methylene blue assay, n=4. […] T24 and UC3 cells were treated with APX2009 and APX2014 at the IC50 and IC90 and monitored over time for activation of capsase 3/7 by an increase in red fluorescence. Time course graphs are shown in FIG. 31B and representative images at 48 hr are shown in FIG. 32A (described more fully below), n=3-4.
FIGS. 36A-36H. […] In cytokine-induced T24 and UC3 cells NFκB-driven luciferase (FIG. 36A), STAT3-driven luciferase (FIG. 36B), and AP-1-driven luciferase (FIG. 36C) were quantified and normalized via Renilla following treatment with the corresponding cell growth-inhibitory IC50 concentrations. T24 cells were treated with APX2009 (8.5 μM) and APX2014 (6.5 μM), and UC3 cells were treated with APX2009 (6.1 μM) and APX2014 (4.6 μM) for 24 h. (*-p<0.05 APX treated vs vehicle, n=4). […] In the panels of FIGS. 36F & 36G, co-expression of survivin and APE1/Ref-1 was analyzed in superficial (FIG. 36F) and invasive human bladder tumors (FIG. 36G) in patients, and found nearly universal overlap of positivity in both in human samples. This was also true in cisplatin-refractory patients from the tissue microarray specimens (FIG. 36H). […]

ECFC colonies = experiment: Limiting dilution assay (LDA); format: cell-based; conditions: 25, 37.5, 50 μM
Protocol: Limiting dilution assay. […] ECFCs were cultured as previously described (Blood, 1 Nov. 2004, Vol. 104, No. 9, pp. 2752-2760). ECFC colonies appeared between 5 and 22 days of culture. Colonies and the number of cells per colony were counted by visual inspection using an inverted microscope. […] Increasing amounts of APX3330(RN3-3) leads to a decrease in the number of colonies with large numbers of cells and an increase in colonies with only small cell numbers indicative of inhibition of cell growth. (FIG. 9). (In FIG. 9, the bars are, left to right, EtOH, and E330 dosed at 25 μM, 37.5 μM, and 50 μM.)

[1] = test system: VEGF release from Hey-C2, SKOV-3X, Panc1, PaCa-2 and Igrov cells; experiment: VEGF ELISA on cancer cell supernatants; format: cell-based, human; conditions: normoxia and hypoxia, about 24 hrs
Protocol: Inhibition of VEGF release. VEGF enzyme-linked immunosorbent assay (ELISA). Various cancer cell lines were plated in a 24-well plate and treated in duplicates with for about 24 hrs in normoxic (about 21% oxygen) or hypoxic (about 2% oxygen) condition. The supernatants of cells were collected and subjected to an ELISA assay with a kit specific for human VEGF according to the manufacturer (R&D Systems, Minneapolis, Minn.) VEGF ELISA assay results were read in a 96-well format plate reader by measuring absorbance at 450 nm with correction at 540 nm. Hypoxia induced an increase in VEGF release (FIG. 2). (For FIGS. 2-7, black bars=normoxia; gray bars=hypoxia.)
VEGF ELISA Assays. Hey-C2 (ovarian cancer), SKOV-3X (ovarian cancer), Pancl (pancreatic cancer), PaCa-2 (pancreatic cancer), and Igrov (ovarian cancer) cells were plated in a 24-well plate and treated in duplicates with (RN3-3 e) at different concentrations for about 24 hrs in normoxic (about 21% oxygen) or hypoxic (about 2% oxygen) condition. The supernatants of cells were collected and subjected to an ELISA assay with a kit specific for human VEGF according to the manufacturer (R&D Systems, Minneapolis, Minn.). VEGF ELISA assay results were read in a 96-well format plate reader by measuring absorbance at 450 nm with correction at 540 nm.

CB-ECFC cells = experiment: Capillary tube formation assay on […]; format: cell-based; conditions: about eight hours after seeding
Protocol: Inhibition of capillary tube formation. The capillary tube formation assay was performed using CB-ECFC cells plated on […]® and treated with APX3330 or control media. ECFCs were cultured as previously described (Blood, 1 Nov. 2004, Vol. 104, No. 9, pp. 2752-2760). ECFC colonies appeared between 5 and 22 days of culture. Colonies were counted by visual inspection using an inverted microscope (Olympus, Lake Success, N.Y.) under ×40 magnification. Cells were passaged as previously described. Blood, 1 Nov. 2004, Vol. 104, No. 9, pp. 2752-2760.)
The tube formation assay was performed as described previously (J. Biol. Chem. 274 (1999), pp. […]). Various concentrations of APX3330 were given to CB-ECFCs for about 30 min at room temperature before seeding and plated onto the layer of […]® at a density of about 1×10^4 cells/well. After about eight hours, the enclosed networks of complete tubes from randomly chosen fields were counted and photographed under a microscope.

multiple myeloma cells = experiment: Phospho-histone H2AX western blot (DNA double stranded breaks); format: cell-based; conditions: combination with melphalan
Protocol: APX3330 in combination with chemotherapeutic Melphalan. […] Synergistic plots made using CalcuSyn software. APX3330 was either given alone or in combination with melphalan. As an indicator of DNA double stranded breaks (DSBs), the phosphorylation of histone H2AX at Ser^139 was measured with a phosphorylation-specific H2AX antibody from Upstate Cell Signaling Solutions (Waltham, Md.). Cells were treated with melphalan alone or melphalan plus APX3330. After drug treatment, exponentially growing cells were harvested, washed in cold PBS, and lysed in about 100 μL RIPA assay buffer as described above. Protein was quantified and electrophoresed in SDS gel-loading buffer on a 12% SDS-polyacrylamide gel. Mouse monoclonal anti-phosphohistone H2AX (about 1:1000) or anti-actin antibody (about 1:1000; as a loading control, LabVision Corp., NeoMarkers, Fremont, Calif.) was used to probe for protein levels as described previously. Bands were detected using a chemiluminescence kit from Roche Applied Biosciences (Indianapolis, Ind.). The bands were visualized using Bio-Rad Chemidoc XRS (Hercules, Calif.) and quantitated using Chemidoc software, Quantity One 4.6.1.

Question: For CCC/C(=C\C1=C(OC)C(=O)c2ccccc2C1=O)C(=O)N(CC)CC [APX2009, [(2E)-2-[(3-methoxy-1,4-dioxo-1,4-dihydronaphthalen-2-yl)methylidene]-N,N-diethylpentanamide]], which IC50 (T24 cells) is on record?
Answer: 8.5 µM

Question: Which results are given for CCCCCCCCC/C(=C\C1=C(C)C(=O)C(OC)=C(OC)C1=O)C(=O)O [APX3330]?
Answer: growth of large cell number colonies (ECFC colonies): inhibit growth of large cell number colonies; VEGF release [1]: reduced the amount of VEGF release; tube formation (CB-ECFC cells): inhibit tube formation; DNA double stranded breaks (phospho-H2AX), melphalan plus APX3330 compared to melphalan alone (multiple myeloma cells): increase in DSBs
